How the values were obtained:
rat osteoblastic cells [1] = test: Alkaline phosphatase (ALP) stain of osteoblastic culture (Example 1); format: cell-based; conditions: NAC added into osteoblastic culture, day 7; dose-dependent up to 5 mM; p<0.001 vs without NAC
Experimental: Bone marrow cells isolated from the femur of 8-week-old male Sprague-Dawley rats were placed into alpha-modified Eagle's medium supplemented with 15% fetal bovine serum, 50 µg/ml ascorbic acid, 10^−8M dexamethasone, 10 mM Na-β-glycerophosphate and Antibiotic-antimycotic solution containing 10,000 units/ml Penicillin G sodium, 10,000 mg/ml Streptomycin sulfate and 25 mg/ml Amphotericin B. Cells were incubated in a humidified atmosphere of 95% air, 5% CO2 at 37° C. At 80% confluency, the cells were detached using 0.25% Trypsin-1 mM EDTA-4Na and seeded either the polystyrene dish with or without NAC addition, bone substitute material (demineralized bone matrix, Orthoblast, IsoTis OrthoBiologics, Inc. Irvine, Calif.), collagen gel (PureCol, Inamed, Fremont, Calif.) or bone cement (Endurance MV, DePuy Orthopaedics, Warsaw, Ind.) with or without NAC incorporation at a density of 4×10^4 cells/cm^2. The culture medium was renewed every three days. The NAC incorporated bone graft substitute and collagen membrane materials were prepared by soaking each of the materials in NAC for 24 hours. The NAC-incorporated collagen gel was prepared by mixing the collagen gel and NAC. […] The stained images were analyzed for ALP positive area defined as [(stained area/total dish area)×100)] […] Three independent cultures were evaluated in each the experimental groups.

rat osteoblastic cells [2] = test: Mineralization assays, Von Kossa and Alizarin Red stain (Example 1); format: cell-based; conditions: NAC added into culture medium, day 14; dose-dependent; p<0.001
Experimental: Bone marrow cells isolated from the femur of 8-week-old male Sprague-Dawley rats were placed into alpha-modified Eagle's medium supplemented with 15% fetal bovine serum, 50 µg/ml ascorbic acid, 10^−8M dexamethasone, 10 mM Na-β-glycerophosphate and Antibiotic-antimycotic solution containing 10,000 units/ml Penicillin G sodium, 10,000 mg/ml Streptomycin sulfate and 25 mg/ml Amphotericin B. Cells were incubated in a humidified atmosphere of 95% air, 5% CO2 at 37° C. At 80% confluency, the cells were detached using 0.25% Trypsin-1 mM EDTA-4Na and seeded either the polystyrene dish with or without NAC addition, bone substitute material (demineralized bone matrix, Orthoblast, IsoTis OrthoBiologics, Inc. Irvine, Calif.), collagen gel (PureCol, Inamed, Fremont, Calif.) or bone cement (Endurance MV, DePuy Orthopaedics, Warsaw, Ind.) with or without NAC incorporation at a density of 4×10^4 cells/cm^2. The culture medium was renewed every three days. The NAC incorporated bone graft substitute and collagen membrane materials were prepared by soaking each of the materials in NAC for 24 hours. The NAC-incorporated collagen gel was prepared by mixing the collagen gel and NAC. […] (%) was measured using a digitized image analysis system (Image Pro-plus, Media Cybernetics, MD). Three independent cultures were evaluated in each of the experimental groups.

osteoblastic culture = test: Gene expression analysis of bone-related genes by RT-PCR (Example 1); format: cell-based, rat; conditions: relative to GAPDH
Experimental: Bone marrow cells isolated from the femur of 8-week-old male Sprague-Dawley rats were placed into alpha-modified Eagle's medium supplemented with 15% fetal bovine serum, 50 µg/ml ascorbic acid, 10^−8M dexamethasone, 10 mM Na-β-glycerophosphate and Antibiotic-antimycotic solution containing 10,000 units/ml Penicillin G sodium, 10,000 mg/ml Streptomycin sulfate and 25 mg/ml Amphotericin B. Cells were incubated in a humidified atmosphere of 95% air, 5% CO2 at 37° C. At 80% confluency, the cells were detached using 0.25% Trypsin-1 mM EDTA-4Na and seeded either the polystyrene dish with or without NAC addition, bone substitute material (demineralized bone matrix, Orthoblast, IsoTis OrthoBiologics, Inc. Irvine, Calif.), collagen gel (PureCol, Inamed, Fremont, Calif.) or bone cement (Endurance MV, DePuy Orthopaedics, Warsaw, Ind.) with or without NAC incorporation at a density of 4×10^4 cells/cm^2. The culture medium was renewed every three days. The NAC incorporated bone graft substitute and collagen membrane materials were prepared by soaking each of the materials in NAC for 24 hours. The NAC-incorporated collagen gel was prepared by mixing the collagen gel and NAC. The expression of bone-related genes was analyzed using the reverse transcription-polymerase chain reaction (RT-PCR). Total RNA in the cultures was extracted using TRIzol (Invitrogen, Carlsbad, Calif.) and purification column (RNeasy, Qiagen, Valencia, Calif.). Following DNAse I treatment, reverse transcription of 0.5 μg of total RNA was performed using MMLV reverse transcriptase (Clontech, Carlsbad, Calif.) in the presence of oligo(dT) primer (Clontech, Carlsbad, Calif.). The PCR reaction was performed using Taq DNA polymerase (EX Taq, Takara Bio, Madison, Wis.) to detect alpha-I type I collagen (collagen I), osteopontin, and osteocalcin mRNA. The primer sequences and PCR conditions are described previously. Resulting products were visualized on 1.5% agarose gel with ethidium bromide staining. The intensity of bands was quantified under UV light, and the values were normalized with reference to GAPDH mRNA.

## CC(=O)N[C@@H](CS)C(=O)O [NAC, N-acetyl cysteine]
Rat osteoblastic cells [1]
  alkaline phosphatase activity (ALP positive area): increased
Rat osteoblastic cells [2]
  Von Kossa positive area (mineralizing capability): significantly increased
Osteoblastic culture; NAC addition to the culture
  gene expression level of Bmp2: significantly elevated
  gene expression level of Runx2/cbfa1: significantly elevated
Osteoblastic culture; culture with NAC, early stage of day 3
  osteocalcin expression: upregulated
Osteoblastic culture; culture with NAC, up to day 14
  expression of collagen I: upregulated
  expression of osteopontin: upregulated
